Laboratory results as given in patent US9388216B2, “Methods of treating reproductive cancer” (Medical Research Council, priority 2006, dated 2016).

What was measured:
HEK293/rGnRHR cells [1] = test: Cell growth inhibition (viable cell number after 5 days of continuous treatment) in HEK293/rGnRHR cells; assay type: cell-based, rat; conditions: rat receptor
Experimental: (§1) For the first method, HEK293 cells expressing various GnRH receptor constructs were seeded into 12-well PLL-coated plates at 50,000 cells (in 1 ml)/well and cultured with continuous GnRH exposure for five days, adding fresh peptide every day. Trypan Blue-excluding cells were then counted with a haemocytometer. For the second method, cells were seeded into 96-well plates at 5,000 cells (in 100 μl)/well and treated exactly as described before. 10 μl WST-1 reagent (Roche Diagnostics Ltd.; Lewes, East Sussex, UK) was added directly to each well and, after 3 h at 37° C., absorbance was read at 450 nm (with a reference at 690 nm) against a background control as blank using a microplate ELISA reader.
(§2) Bar graphs and curves were obtained using Prism 3.0 (GraphPad Software, Inc.: San Diego, Calif., USA). IC50 and EC50 values were determined by non-linear regression analysis. Curves were best-fitted to a one-site model. […] Values were normalised as specified in the figure legends.
(§3) Antiproliferation/apoptosis was estimated by determining cell number after five days of continuous exposure to the peptides. In parallel, this response was compared to the classical Gq coupled-PLCβ activation induced by GnRH peptides, as measured by the very well characterized inositol phosphates accumulation protocol. Both outputs were determined in two HEK293 cell lines; one expressing the rat receptor and the other expressing the human receptor. The human cell line was included in the study because this species may be clinically more relevant and the very low receptor expression may better reflect the in vivo tumoural state. In fact, due to poor binding, the precise affinity of the analogues on this cell line could not be determined.

HEK293/hGnRHR cells = test: Cell growth inhibition (viable cell number after 5 days of continuous treatment) in HEK293/hGnRHR cells; assay type: cell-based, human; conditions: human receptor
Experimental: as §1, §2, §3

HEK293/rGnRHR cells [2] = test: Thymidine incorporation assay; assay type: cell-based, rat; conditions: 100 nM, continuous treatment, over 96 h
Experimental: Medium of cells growing on 24-well PLL-coated plates was removed and 0.5 μCi [3H]thymidine (Amersham) in complete fresh medium was added to each well. After an overnight incubation, the medium was removed, the cells washed three times with 1 ml PBS and left for […] at room temperature in 0.5 ml 0.1 N NaOH. The extract was then transferred to a scintillation vial, 2 ml of Optiphase “HiSafe 3” cocktail (PerkinElmer) added and 3H counts measured in a liquid scintillation 1450 Wallac MicroBeta® TriLux counter.
(§4) We investigated whether the growth suppression caused by GnRH on HEK293 cells expressing the rat receptor was due to an inhibition of cell proliferation or an induction of apoptosis. On the one hand, we used radioactive thymidine incorporation into the genome to track cell proliferation over a period of 96 h. […] On the other hand, we measured apoptosis by monitoring cleavage of poly[ADP-ribose]polymerase (PARP), a substrate of caspase 3. […] The increase of cleaved PARP in the cytoplasm was proportional to the increase of cleaved PARP in the nucleus (data not shown), so we routinely only examined clarified whole-cell lysates for technical ease.

[3] = tested on: PARP cleavage in HEK293/rGnRHR cells; test: Time-course of PARP cleavage (apoptosis), western blot; assay type: cell-based, rat; conditions: 100 nM
Experimental: as §4

[4] = tested on: Gi coupling of GnRHR (FSK-stimulated cAMP); test: Inhibition of FSK-stimulated cAMP in HEK293/rGnRHR cells; assay type: cell-based, rat; conditions: unpublished results
Excerpt: However, we agree with the general view that PLC, representing the classical Gq-initiated pituitary signalling pathway, is not a relevant component of the apoptotic cascade.

rat GnRH receptor = molecular target: T1, rat GnRH receptor (Rattus norvegicus, UniProt P30969); test: Accumulation of total inositol phosphates (PLCβ activation) in HEK293/rGnRHR cells; assay type: cell-based
T1 construct: expressed in transfected cells
T1 sequence (P30969 1-327): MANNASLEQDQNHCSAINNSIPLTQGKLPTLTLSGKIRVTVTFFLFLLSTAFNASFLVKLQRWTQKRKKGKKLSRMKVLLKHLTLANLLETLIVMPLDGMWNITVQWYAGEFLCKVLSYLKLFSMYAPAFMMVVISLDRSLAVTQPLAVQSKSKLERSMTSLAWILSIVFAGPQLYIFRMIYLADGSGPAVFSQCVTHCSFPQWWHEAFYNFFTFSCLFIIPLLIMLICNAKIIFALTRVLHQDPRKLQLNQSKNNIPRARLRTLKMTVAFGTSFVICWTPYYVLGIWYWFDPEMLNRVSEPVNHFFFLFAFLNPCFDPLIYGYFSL
Experimental: HEK293 cells stably expressing the GnRH receptor growing on 12-well PLL-coated plates were pre-labelled with 1 μCi/ml myo-[H3]inositol (Amersham) in inositol-free DMEM (Sigma) for 48 h. On the day of the experiment, cells were washed with assay buffer (140 mM NaCl, 20 mM HEPES, 8 mM glucose, 4 mM KCl, 1 mM MgCl2, 1 mM CaCl2, 1 mg/ml BSA), pre-incubated with 10 mM LiCl (in assay buffer) for 30 min, and stimulated with different concentrations of the peptides (in the same buffer) for 1 h at 37° C. Incubations were terminated by removing the culture medium and lysing the cells in ice cold 10 mM formic acid for 30 min. Inositol phosphates were extracted by chromatography with an anion exchange resin (AG® 1-X8, Bio-Rad) using 1 M ammonium formate and 0.1 M formic acid. Liquid scintillant was added to the final eluate and [3H]inositol phosphates were measured in the β-counter.
as §2

[5] = tested on: HEK293 cells expressing human GnRHR with catfish GnRHR tail or rat GnRHR with TRHR tail; test: Cell growth after five days of GnRH I in HEK293 cells expressing tailed chimeric receptors; assay type: cell-based; conditions: five days of continuous treatment
Experimental: Trypan Blue-excluding cells were then counted with a haemocytometer. For the second method, cells were seeded into 96-well plates at 5,000 cells (in 100 μl)/well and treated exactly as described before. 10 μl WST-1 reagent (Roche Diagnostics Ltd.; Lewes, East Sussex, UK) was added directly to each well and, after 3 h at 37° C., absorbance was read at 450 nm (with a reference at 690 nm) against a background control as blank using a microplate ELISA reader. To the best of our knowledge, the ability to inhibit the growth of cells expressing its cognate receptor is a property only clearly described for GnRH, Since the type I GnRH receptor (GnRHR) is the only G protein-coupled receptor lacking an intracellular C-terminal tail, we hypothesized that the cell growth suppression ability of GnRH was conferred by this unique feature of the GnRHR. […] We were unable to detect growth suppression of wild-type HEK293 cells, which endogenously express adrenergic, LPA and endothelin receptors, treated with their corresponding agonists (data not shown). The expression of all receptors mentioned was confirmed by binding assays or western blotting (data not shown).

[6] = tested on: HEK293 cells over-expressing the catfish GnRHR or the TRHR; test: Cell growth in HEK293 cells over-expressing the catfish GnRHR or the TRHR; assay type: cell-based; conditions: data not shown
Experimental: as §1
To the best of our knowledge, the ability to inhibit the growth of cells expressing its cognate receptor is a property only clearly described for GnRH, Since the type I GnRH receptor (GnRHR) is the only G protein-coupled receptor lacking an intracellular C-terminal tail, we hypothesized that the cell growth suppression ability of GnRH was conferred by this unique feature of the GnRHR. […] We were unable to detect growth suppression of wild-type HEK293 cells, which endogenously express adrenergic, LPA and endothelin receptors, treated with their corresponding agonists (data not shown). The expression of all receptors mentioned was confirmed by binding assays or western blotting (data not shown).

[7] = tested on: ERK1/2 phosphorylation in HEK293 cells expressing rat GnRHR or rat GnRHR/TRHR chimera; test: ERK activation profile, western blot with anti-phosphorylated ERK1/2; assay type: cell-based; conditions: 100 nM, rat GnRHR versus rat GnRHR/TRHR chimera
Excerpt: We decided to investigate if this lack of rapid desensitisation holds true for other responses that may be more pertinent for the antiproliferative/apoptotic properties of GnRH.

Substance	fold more potent than GnRH I to induce cell death / inhibit cell growth (HEK293/rGnRHR cells [1]) [fold]	fold more potent than GnRH I to induce cell death / inhibit cell growth (HEK293/hGnRHR cells) [fold]	DNA replication (thymidine incorporation) compared to untreated cells (HEK293/rGnRHR cells [2])	time after first treatment at which PARP cleavage (apoptosis) is manifest [3]	inhibition of FSK-stimulated cAMP [4]	fold more potent to activate PLCβ than GnRH II (rat GnRH receptor) [fold]	effect of GnRH I on cell growth of cell lines expressing the chimeras [5]	inhibition of cell growth [6]	duration of ERK activation [7]
pGlu-His-Trp-Ser-His-Gly-Trp-Tyr-Pro-Gly.NH2 (EHWSHGWYPG; HELM PEPTIDE1{[Glp].H.W.S.H.G.W.Y.P.G.[am]}$$$$V2.0; SMILES NC(=O)CNC(=O)[C@@H]1CCCN1C(=O)[C@H](Cc1ccc(O)cc1)NC(=O)[C@H](Cc1c[nH]c2ccccc12)NC(=O)CNC(=O)[C@H](Cc1c[nH]cn1)NC(=O)[C@H](CO)NC(=O)[C@H](Cc1c[nH]c2ccccc12)NC(=O)[C@H](Cc1c[nH]cn1)NC(=O)[C@@H]1CCC(=O)N1) [GnRH II, human gonadotropin-releasing hormone II, purchased from Sigma-Aldrich]	13.0	6.7	reduced DNA replication	24 h	did not detect	–	–	–	–
pGlu-His-Trp-Ser-Tyr-Gly-Leu-Arg-Pro-Gly.NH2 [GnRH I]	–	–	reduced DNA replication	at least 48 h	did not detect	4.7	Addition of the C-terminal tails inhibited the effect	did not inhibit the growth	more sustained in the cells expressing the receptors lacking the C-terminal tail
